From patent US20050118641A1, “Design Technique for Use in Engineering of Deamidation Rates of Peptides, Proteins, Hormones, and Peptide-Like, Protein-Like and Hormone-Like Molecules” (priority 2003, published 2005)
Blank lines part the entries; values can stand above or below the substance they belong to.

Experiments:
Type in all cases: physicochemical
[1] = Deamidation of Asn pentapeptides GlyXxxAsnYyyGly (medians over Xxx)
Source text: (§1) Median values for carboxyl side residues of Asn and Gln were used in these derivations. The measurements for Asn are the most reliable and are used for these derivations. […] The half-time of hydrolysis was assumed to be 8010 days, but may be faster or slower. Regardless of the derivation based on Asn, calculations of Gln based on these values are found to approximately agree with the currently available data.
(§2) The natural log of the median hydrolysis-corrected rate constants times 100 (s^−1) for the Asn and Gln pentapeptides as a function of carboxyl-side residue as computed from the experimental data are listed in Table 1. The first columns are (100)(ln(k)) and are directly proportional to the Arrhenius activation energy. The second columns are normalized to Gly. This leaves only the side-chain effects and also defines the effect of the Gly hydrogen side-chain or a similar atom with mostly steric effects in this β-position as zero.
For most Asn peptides the computed result should be within 10% or less of the experimental value in 37° C., pH 7.4, 0.15 M Tris-HCl buffer or similar conditions. Gln rates are more affected by hydrolysis and cannot be verified to as high an accuracy with the current data. For Gln peptides and long lived Asn peptides, correction for hydrolysis should be made. With a hydrolysis value of 8010 days: t1/2total=1/(1/8010+1/t1/2calculated)

[2] = Deamidation of Gln pentapeptides GlyXxxGlnYyyGly (medians over Xxx); details: Gln versus Asn peptide
Source text: as §1, §2
This model for Asn deamidation is also applicable to Gln deamidation, although Gln deamidation rates have not been as well characterized. While there may be important differences in the functional group effects for the longer Gln chain, the steric effects are similar as illustrated in FIG. 6. […] The fundamental difference between Asn and Gln rates has been removed by subtracting the Gln values from GlyXxxGlnGlyGly and the Asn values from GlyXxxAsnGlyGly.

[3] = Deamidation of insulin at Asn(B3)
Description: As an example, consider the sequence Phe-ValAsn(B3)GlnHis of insulin. This peptide deamidates at Asn(B3) with a half-time of 136 days at 37° C., pH 7.4 sodium acetate, 0.1% methyl paraben, 0.7% NaCl.

deamidation rate (50% chance of deamidating) [1]: about 1 day
Substance: GlyXxxAsnGlyGly

experimental deamidation half-time ([1]; 37° C., pH 7.4, 0.15 M Tris-HCl buffer): 46.2 days
Substance: GlyXxxAsnThrGly

difference between GlyXxxGlnGlyGly and GlyXxxAsnGlyGly, (100)ln(k) scale [2]: 644.8
Substance: GlyXxxGlnGlyGly

Substance: insulin
deamidation half-time at Asn(B3) ([3]; 37° C., pH 7.4 sodium acetate, 0.1% methyl paraben, 0.7% NaCl): 136 days | (100)ln(k) subtracted from the AsnGly value ([3]; converted from the 136 day half-time): 478.3
